Measured values from PMC9029538, “Dosing Colistimethate Every 8 h Results in Higher Plasma Concentrations of Active Colistin Than Every 12-Hourly Dosing without Increase in Nephrotoxicity: A Phase 1 Pharmacokinetics Trial in Healthy Adult Volunteers” (Antibiotics, 2022).
Read-outs that look alike come from different tables or passages of the source. Where a SMILES comes first, the peptide text is derived from it. Bridges are numbered along the chain shown (N, C = ends). [ ]: non-standard residue; d: D form. The star is where a group is joined. Heptanoyl(6-Me) = CC(C)CCCCC(=O)*; X1 = CC[C@H](C)CCCCC(=O)*; Dab = NCC[C@H](N)C(=O)O

Key:
[1] = Plasma pharmacokinetics after IV CMS (Period 1); conditions: for AUC(0-t) / AUC(0-inf) / clearance / Cmax / Vd / half-life / Tmax: human, in vivo, iv; for clearance: CL; for Vd: Vdss; for Tmax: median (min-max)
Method: (§1) During dosing Period 1, subjects in Cohorts 1, 2, and 3 received 2 to 3 doses of IV CMS (total exposure 5–10 mg/kg) based on the specific cohort regimen. During dosing Period 2, the same subjects then received 2 to 4 doses of 75 mg of CMS via aerosolized administration, and during dosing Period 3, subjects received a combination of IV and aerosolized CMS based on the specific cohort regimen. Each dosing period was followed by a washout period of at least 3 days (Table 1).
(§2) For all plasma PK collections, 3 mL samples of whole blood were drawn into collection tubes containing sodium heparin and placed immediately on ice at specified time intervals. […] The blood was centrifuged at 2500× g within 2 h of collection, and the plasma fraction was removed and frozen at −70 °C for shipment to the Analytical Pharmacology Laboratory at the University of Toledo.
(§3) The PK analysis was conducted using Phoenix™ WinNonlin® Version 6.2 (Pharsight, a Certara Company).
(§4) Concentration versus time profiles were investigated for each of the four colistin analytes. These profiles were augmented by the inclusion of estimated concentrations at additional time points, including dosing Period 1—immediately prior to the final IV dose; dosing Period 3—immediately prior to the final IV dose; and after the final IV dose. The following PK parameters were estimated for each: maximum observed concentration (Cmax), area under the plasma concentration versus time curve, AUC (e.g., AUC 0–inf), AUC 0–t) versus time curve, time to maximum observed concentration (Tmax), elimination half-life (t1/2), slope of the post-distributive terminal portion of plasma concentration versus time curve (Kel), total body clearance/bioavailability (CL/F), and the apparent steady-state volume of distribution/bioavailability ([…]). The concentrations of intravenously administered CMS, aerosolized drug, and both delivery methods used simultaneously were compared. In addition, the presence or absence of a proportionality dose-dependent effect was determined.

clinical = assay: clinical
Method: as §1, §2, §3, §4

[2] = Period 3, Cohort 1: IV 2.5 mg/kg q12h x 2 doses + aerosol 75 mg colistin base activity q12h x 2 doses; plasma after final dose; median (min-max)
Method: as §1, §2, §3
Concentration versus time profiles were investigated for each of the four colistin analytes. These profiles were augmented by the inclusion of estimated concentrations at additional time points, including dosing Period 1—immediately prior to the final IV dose; dosing Period 3—immediately prior to the final IV dose; and after the final IV dose. […] In addition, the presence or absence of a proportionality dose-dependent effect was determined.

[3] = Nephrotoxicity (serum creatinine); format: in vivo, healthy adult volunteers; design: serum creatinine increase (absolute): unit not given here; conditions: for serum creatinine increase (absolute) / serum creatinine increase (percent): 24 h post first dose
Method: Serum samples for kidney biomarkers were obtained for serum cystatin C, NGAL, and serum β microglobulin levels. Urine samples were obtained for urine protein, creatinine, and microalbumin excretion (see Supplementary Tables S1–S10 and Data S1–S6).
(§5) Safety assessments for TEAEs were conducted, including physical examinations (including neurological evaluations), […], vital signs, clinical laboratory tests, selected biomarkers for acute kidney injury (see section on kidney biomarkers), spirometry, and ECG measurements (see Supplementary Data S5 and S6 for clinical laboratory evaluations and schedule of events). If symptoms of ataxia were present, SARA (Scale for the Assessment and Rating of Ataxia, according to Schmitz-Hübsch et al.) assessment forms were completed to assess their severity.

[4] = Neurotoxicity (paresthesias, ataxia, SARA scores); format: in vivo, healthy adult volunteers; conditions: Cohort 1, 2.5 mg/kg q12h × 2 doses; Periods 1 and 3 combined; seven of eighteen
Method: as §5

[5] = tested on: A. baumannii or P. aeruginosa; conditions: retrospective study, cited from earlier work
Text: Whether the aerosolized administration of CMS translates into greater drug efficacy against MDROs in the management of HAP/VAP caused by MDROs, however, still remains a matter of controversy, as is the issue of the efficacy of colistin combination therapy. A retrospective study of pneumonia patients who received aerosolized colistin therapy for a median of 14 days reported the microbiological eradication of the causative MDRO (A. baumannii or P. aeruginosa) in 18 out of 21 cases. This high rate of eradication corroborates another retrospective study in which 37 out of 40 patients who re ...

[6] = 2.5 mg/kg, Period 1, Cohort 1: IV 2.5 mg/kg colistin base activity q12h x 2 doses, plasma after final dose, mean (SD), SD
[7] = 2.5 mg/kg, Period 1, Cohort 2: IV 2.5 mg/kg colistin base activity q8h x 3 doses, plasma after final dose, mean (SD), SD
[8] = 2.5 mg/kg, t1/2, Period 1, Cohort 1: IV 2.5 mg/kg colistin base activity q12h x 2 doses, plasma after final dose, mean (SD), SD
[9] = 2.5 mg/kg, t1/2, Period 1, Cohort 2: IV 2.5 mg/kg colistin base activity q8h x 3 doses, plasma after final dose, mean (SD), SD
[10] = 2.5 mg/kg, Period 1, Cohort 1: IV 2.5 mg/kg colistin base activity q12h x 2 doses, plasma after final dose
[11] = 2.5 mg/kg, Period 1, Cohort 2: IV 2.5 mg/kg colistin base activity q8h x 3 doses, plasma after final dose
[12] = 3.3 mg/kg, Period 1, Cohort 3: IV 3.3 mg/kg colistin base activity q8h x 3 doses, plasma after final dose, mean (SD), SD
[13] = 3.3 mg/kg, t1/2, Period 1, Cohort 3: IV 3.3 mg/kg colistin base activity q8h x 3 doses, plasma after final dose, mean (SD), SD
[14] = 3.3 mg/kg, Period 1, Cohort 3: IV 3.3 mg/kg colistin base activity q8h x 3 doses, plasma after final dose
[15] = elimination t1/2 (half-life, as stated in text), plasma
[16] = Period 2, Cohort 2: aerosol 75 mg colistin base activity q8h x 3 doses, plasma after final dose, mean (SD), SD
[17] = Cohort 3, first of four subjects
[18] = Cohort 3, fourth of four subjects
[19] = Cohort 3, second of four subjects
[20] = Cohort 3, third of four subjects

| Structure (SMILES) | AUC(0-t) [1, 6] [ng·h/mL] | AUC(0-t) [1, 7] [ng·h/mL] | AUC(0-inf) [1, 6] [ng·h/mL] | AUC(0-inf) [1, 7] [ng·h/mL] | clearance [1, 6] [mL/min] | clearance [1, 7] [mL/min] | Cmax [1, 6] [ng/mL] | Cmax [1, 7] [ng/mL] | Vd [1, 6] [L] | Vd [1, 7] [L] | half-life [1, 8] [h] | half-life [1, 9] [h] | Tmax [1, 10] [h] | Tmax [1, 11] [h] | AUC(0-t) [1, 12] [ng·h/mL] | AUC(0-inf) [1, 12] [ng·h/mL] | clearance [1, 12] [mL/min] | Cmax [1, 12] [ng/mL] | Vd [1, 12] [L] | half-life [1, 13] [h] | other results |
| --- | --- | --- | --- | --- | --- | --- | --- | --- | --- | --- | --- | --- | --- | --- | --- | --- | --- | --- | --- | --- | --- |
| CC[C@H](C)CCCCC(=O)N[C@@H](CCN)C(=O)N[C@H](C(=O)N[C@@H](CCN)C(=O)N[C@H]1CCNC(=O)[C@H]([C@@H](C)O)NC(=O)[C@H](CCN)NC(=O)[C@H](CCN)NC(=O)[C@H](CC(C)C)NC(=O)[C@@H](CC(C)C)NC(=O)[C@H](CCN)NC1=O)[C@@H](C)O [colistin A] (X1-[Dab]T[Dab][Dab][Dab][dL]L[Dab][Dab]T; lactam 4-C) | 21800 | 30400 | 23800 | 33000 | 103 | 74.5 | 3950 | 5360 | 29.5 | 21.7 | 3.32 | 3.47 | 1.02 | 0.6 | 49100 | 52400 | 64.5 | 8740 | 22.2 | 4.22 | Tmax [1, 14]: 1 h; half-life [1, 15]: ~3.5 h; time concentrations stay above the target of 2 μg/mL after dosing ([1]; q8h dosing, 8 h between doses): 6 h; t1/2 (clinical; Period 2, Cohort 1: aerosol 75 mg colistin base activity q12h x 2 doses, plasma after final dose, mean (SD)): 8.37 h; CL/F (clinical; [16]): 8.12 (0.628) L/h; t1/2 (clinical; [16]): 7.81 (1.33) h; t1/2 (clinical; Period 2, Cohort 3: aerosol 75 mg colistin base activity q6h x 4 doses, plasma after final dose, mean (SD), SD): 26.0 (31.2) h; circulating plasma concentrations following aerosol administration alone (clinical; Period 2, aerosol only): low and not related to the dose administered; AUC(0-t) (clinical; human, in vivo, inhaled or intranasal, 75 mg, AUC(0-t),, SD): 4220 ng·h/mL; CL/F (clinical; human, in vivo, inhaled or intranasal, 75 mg, CL/F): 136 mL/min; Cmax (clinical; human, in vivo, inhaled or intranasal, 75 mg, Cmax,, SD): 493 ng/mL; Vd/F (clinical; human, in vivo, inhaled or intranasal, 75 mg, Vdss/F): 98.7 L; Tmax [2]: 1.43 (0.883 – 2.38) h |
| CC[C@H](C)CCCCC(=O)N[C@@H](CCN)C(=O)N[C@H](C(=O)N[C@@H](CCN)C(=O)N[C@H]1CCNC(=O)[C@H]([C@@H](C)O)NC(=O)[C@H](CCN)NC(=O)[C@H](CCN)NC(=O)[C@H](CC(C)C)NC(=O)[C@@H](CC(C)C)NC(=O)[C@H](CCN)NC1=O)[C@@H](C)O [colistin] (X1-[Dab]T[Dab][Dab][Dab][dL]L[Dab][Dab]T; lactam 4-C) | – | – | – | – | – | – | – | – | – | – | – | – | – | – | – | – | – | – | – | – | subjects with reversible nephrotoxicity (elevated serum creatinine at 24 h post first dose) ([3]; Cohort 3, after three doses of IV colistin 2.5 mg/kg q8h (so in the source)): four; serum creatinine increase (absolute) [3, 17]: 0.67; serum creatinine increase (percent) [3, 17]: 95.7%; serum creatinine increase (absolute) [3, 18]: 0.3; serum creatinine increase (percent) [3, 18]: 45.5%; serum creatinine increase (absolute) [3, 19]: 0.82; serum creatinine increase (percent) [3, 19]: 82.0%; serum creatinine increase (absolute) [3, 20]: 0.69; serum creatinine increase (percent) [3, 20]: 73.4%; time over which creatinine increases resolved ([3]; Cohort 3, ±4 days): 10 days; effect on serum creatinine ([3]; dose increased from 5 mg/kg/day (Cohort 1; 2.5 mg/kg q12h) to 7.5 mg/kg/day (Cohort 2; 2.5 mg/kg q8h)): did not result in increases in serum creatinine; subjects reporting self-limited perioral paresthesias [4]: 39%; patients with negative follow-up cultures ([5]; aerosolized colistin therapy): 37 out of 40; microbiological eradication of the causative MDRO (cases) ([5]; pneumonia patients, aerosolized colistin for a median of 14 days): 18 out of 21 |
| CC(C)CCCCC(=O)N[C@@H](CCN)C(=O)N[C@H](C(=O)N[C@@H](CCN)C(=O)N[C@H]1CCNC(=O)[C@H]([C@@H](C)O)NC(=O)[C@H](CCN)NC(=O)[C@H](CCN)NC(=O)[C@H](CC(C)C)NC(=O)[C@@H](CC(C)C)NC(=O)[C@H](CCN)NC1=O)[C@@H](C)O [colistin B] ({Heptanoyl(6-Me)}-[Dab]T[Dab][Dab][Dab][dL]L[Dab][Dab]T; lactam 4-C) | 1940 | 3590 | 3290 | 5150 | 96.8 | 59 | 570 | 891 | 26.3 | 18.1 | 3.45 | 3.64 | 0.667 | 0.6 | 5680 | 7160 | 58.2 | 1390 | 17.3 | 3.55 | Tmax [1, 14]: 0.6 h; half-life [1, 15]: ~3.5 h; circulating plasma concentrations following aerosol administration alone (clinical; in vivo): no detectable concentrations |
